Test results taken from the SangsterLogP compilation.

Test: method code SF-AS, from DOI: 10.1002/jps.2600800814, PMID: 1791539

logP	Structure (SMILES)
1.52	COc1cnc(Cl)cn1
1.15	Fc1cncc(Cl)n1
0.13	COc1cncc(C(N)=O)n1
0.95	N#Cc1ncc(Cl)nc1C#N
0.9	COC(=O)c1cncc(N(C)C)n1
1.24	CCOC(=O)c1cncc(N(C)C)n1
2.1	CCCCc1nccnc1C
1.14	COc1cnc(OC)cn1
1.99	CCOc1cnc(Cl)cn1
0.63	COc1cnc(N)cn1
0.69	COC(=O)c1cncc(OC)n1
0.95	Nc1cncc(Cl)n1
1.95	CN(C)c1cncc(Cl)n1
0.44	Cc1cncc(C#N)n1
1.58	Clc1cnc(Cl)cn1
1.65	COc1cnc(N(C)C)cn1
0.51	CCOC(=O)c1cncc(C)n1
0.54	Cc1cncc(C)n1
0.26	Cc1cnc(C#N)cn1
0.1	COC(=O)c1cncc(C)n1
1.2	CCOC(=O)c1cncc(OC)n1
0.35	Cc1cncc(N)n1
1.8	CCc1nccnc1OC
1.81	CSc1nccnc1C
0.65	CCOC(=O)c1nccnc1C(=O)OCC

logP	Structure (SMILES)
0.47	COC(=O)c1cncc(Cl)n1
0.38	CC(=O)Nc1cncc(C)n1
0.38	N#Cc1nccnc1C#N
2.71	CCCOc1cncc(Cl)n1
0.79	N#Cc1cncc(Cl)n1
1.29	COc1cncc(C)n1
2.24	Cc1nccnc1OC(C)C
0.73	COc1cncc(N)n1
0.74	Fc1cncc(F)n1
1.08	Cc1cnc(Cl)cn1
1.58	COc1cncc(OC)n1
1.29	Cc1nc(C#N)c(C#N)nc1Cl
1.79	CCc1nc(C#N)c(C#N)nc1Cl
1.5	Cc1cnc(C)c(Cl)n1
1.28	Cc1nc(C)c(C)nc1C
0.95	Cc1cnc(C)c(C)n1
0.17	COC(=O)c1cnc(C)cn1
1.65	COc1cncc(Cl)n1
1.53	Clc1cncc(Cl)n1
1.95	CCc1ncc(C)nc1CC
0.67	Nc1cnc(Cl)cn1
-0.13	Cc1cncc(C(N)=O)n1
0.82	COc1cncc(NC(C)=O)n1
1.24	COc1nccnc1C
0.56	CC(=O)Nc1cnc(Cl)cn1

logP	Structure (SMILES)
1.82	CCOc1nccnc1C
1.12	CN(C)c1cncc(C#N)n1
2.89	CCCCc1nc(C#N)c(C#N)nc1Cl
1.57	CCCc1nccnc1C
-0.45	Nc1cncc(N)n1
1.7	CN(C)c1cnc(Cl)cn1
-0.02	COC(=O)c1nccnc1C(=O)OC
0.38	CN(C)c1cncc(C(N)=O)n1
1.51	CCc1nccnc1CC
0.61	CCOc1cncc(C(N)=O)n1
0.28	NC(=O)c1cncc(Cl)n1
1.98	CCOc1cncc(OC)n1
0.54	Cc1nccnc1C
1.03	Cc1cncc(Cl)n1
1.1	CC(=O)Nc1cncc(Cl)n1
2.3	CCCCc1nc(C#N)c(C#N)nc1C
0.61	CCOC(=O)c1cnc(C)cn1
1.99	COc1cncc(N(C)C)n1
1.07	CCc1nccnc1C
2.55	CCOc1cncc(OCC)n1
1.57	Cc1cncc(N(C)C)n1
2.22	CCOc1cncc(Cl)n1
-0.25	Cc1cnc(C(N)=O)cn1
0.95	COc1cncc(C#N)n1
